# In ChEMBL document CHEMBL4376881, “Toggling Preassembly with Single-Site Mutation Switches the Cytotoxic Mechanism of Cationic Amphipathic Peptides” (J Med Chem, 2020):
# Calls of active or inactive are those of the source. No cut-off for these calls is given here.
# What was measured:
# HeLa [1] = assay: Cytotoxicity against human HeLa cells assessed as reduction in cell viability incubated for 1 hr by MTT assay; format: functional, cell-based
# HeLa [2] = assay: Induction of membrane lysis in human HeLa cells assessed as loss of membrane integrity at cytotoxic IC50 level incubated for 15 mins by Propidium iodide staining based confocal laser scanning microscopy relative to control; format: functional
# [3] = Self aggregation up to 128 uM in PBS buffer by ANS fluorescent probe based aggregate incorporation assay; format: physicochemical
# [4] = Induction of hemolysis in human erythrocytes assessed as hemoglobin release incubated for 2 hrs by UV absorbance based method; format: cell-based; conditions: erythrocyte
# [5] = Selectivity index, ratio of HC10 for induction of hemolysis in human erythrocytes assessed as hemoglobin release incubated for 2 hrs by UV absorbance based method to IC50 for cytotoxicity against human HeLa cells assessed as reduction in cell viability incubated for 1 hr by MTT assay
# A549 = assay: Cytotoxicity against human A549 cells assessed as reduction in cell viability incubated for 1 hr by MTT assay; format: functional, cell-based; conditions: A549, 1 h
# [6] = Selectivity index, ratio of HC10 for induction of hemolysis in human erythrocytes assessed as hemoglobin release incubated for 2 hrs by UV absorbance based method to IC50 for cytotoxicity against human A549 cells assessed as reduction in cell viability incubated for 1 hr by MTT assay
# MCF7 = assay: Cytotoxicity against human MCF7 cells assessed as reduction in cell viability incubated for 1 hr by MTT assay; format: functional, cell-based; conditions: MCF7, 1 h
# [7] = Selectivity index, ratio of HC10 for induction of hemolysis in human erythrocytes assessed as hemoglobin release incubated for 2 hrs by UV absorbance based method to IC50 for cytotoxicity against human MCF7 cells assessed as reduction in cell viability incubated for 1 hr by MTT assay
# K562 = assay: Cytotoxicity against human K562 cells assessed as reduction in cell viability incubated for 1 hr by MTT assay; format: functional, cell-based; conditions: K562, 1 h
# [8] = Selectivity index, ratio of HC10 for induction of hemolysis in human erythrocytes assessed as hemoglobin release incubated for 2 hrs by UV absorbance based method to IC50 for cytotoxicity against human K562 cells assessed as reduction in cell viability incubated for 1 hr by MTT assay
# HL-60 = assay: Cytotoxicity against human HL60 cells assessed as reduction in cell viability incubated for 1 hr by MTT assay; format: functional, cell-based; conditions: HL-60, 1 h
# [9] = Selectivity index, ratio of HC10 for induction of hemolysis in human erythrocytes assessed as hemoglobin release incubated for 2 hrs by UV absorbance based method to IC50 for cytotoxicity against human HL60 cells assessed as reduction in cell viability incubated for 1 hr by MTT assay
# HeLa [10] = assay: Induction of membrane lysis in human HeLa cells assessed as increase in number of enlarged outward budding vesicles at cytotoxic IC50 level incubated for 15 mins by annexin V-FITC and by propidium iodide staining; format: functional, cell-based
# [11] = Drug localization in cell membrane of human HeLa cells using FITC-labeled compound at cytotoxic IC50 level incubated for 30 mins by confocal laser scanning microscopy; format: cell membranes; conditions: 0.5 h
# [12] = Self aggregation at >8 uM in PBS buffer by ANS fluorescent probe based aggregate incorporation assay; format: physicochemical
# [13] = Self aggregation assessed as formation of nano fibers of varying lengths at 32 uM by atomic force microscopy; format: physicochemical
# HeLa [14] = assay: Cytotoxicity against human HeLa cells assessed as reduction in cell viability at cytotoxic IC50 in presence of 1.5 to 150 ng/mL sodium heparin incubated for 1 hr by MTT assay; format: functional, cell-based
# [15] = Drug localization in mitochondria of human HeLa cells using FITC-labeled compound at cytotoxic IC50 level incubated for 30 mins by Mito-tracker red dye based confocal laser scanning microscopy; conditions: 0.5 h
# [16] = Drug localization in endoplasmic reticulum of human HeLa cells using FITC-labeled compound at cytotoxic IC50 level incubated for 30 mins by ER-tracker red dye based confocal laser scanning microscopy; format: subcellular; conditions: 0.5 h
# HeLa [17] = assay: Induction of oxidative stress in human HeLa cells assessed as increase in reactive oxygen species at cytotoxic IC50 level incubated for 15 mins by CellROX deep red reagent based flow cytometry; format: functional, cell-based
# HeLa [18] = assay: Suppression of mitochondrial membrane potential in human HeLa cells at cytotoxic IC50 level incubated for 15 mins by rhodamine 123 dye based flow cytometry; format: functional, cell-based
# HeLa [19] = assay: Induction of apoptosis in human HeLa cells assessed as increase in caspase 3/7 activity at cytotoxic IC50 level using Ac-DEVD- pNA substrate incubated for 15 to 60 mins; format: functional, cell-based
# [20] = Drug localization in lysosome of human HeLa cells using FITC-labeled compound at cytotoxic IC50 level incubated for 30 mins by Lysotracker red dye based confocal laser scanning microscopy; format: subcellular; conditions: 0.5 h
# [21] = Drug localization in nucleoli of human HeLa cells using FITC-labeled compound at cytotoxic IC50 level incubated for 30 mins by confocal laser scanning microscopy; format: subcellular; conditions: 0.5 h
# HeLa [22] = assay: Cytotoxicity against human HeLa cells assessed as reduction in cell viability at 4 degC at 1 to 16 uM incubated for 1 hr by MTT assay; format: functional, cell-based
Activity [3],Substance,IC50 (HeLa [1]),Activity (HeLa [2]),HC10 [4],Selectivity Index [5],IC50 (A549),Selectivity Index [6],IC50 (MCF7),Selectivity Index [7],IC50 (K562),Selectivity Index [8],IC50 (HL-60),Selectivity Index [9],further results
Not Active,H-KLLKLLKKLLKELK-OH,5.1 µM,inactive,–,–,–,–,–,–,–,–,–,–,–
Not Active,H-KLLKLEKKLLKLLK-OH,> 64 µM,–,–,–,–,–,–,–,–,–,–,–,–
Not Active,H-KKLKLLKKLLKLLK-OH,3.4 µM,inactive,19.5 µM,5.74,3.5 µM,5.53,6.2 µM,3.14,1.3 µM,15,1.7 µM,11.5,–
Not Active,H-KLLKLLKKLLKLEK-OH,21.8 µM,inactive,–,–,–,–,–,–,–,–,–,–,–
–,H-KLLKLLKKLLKLLK-OH,4.6 µM,50%,0.52 µM,0.11,3.7 µM,0.14,4.3 µM,0.12,1.4 µM,0.37,2.5 µM,0.21,Activity (HeLa [10]): Active; Drug uptake [11]: Active; Activity [12]: Dose-dependent effect; Activity [13]: Active; Activity (HeLa [14]): Active
Active,H-KLLELLKKLLKLLK-OH,5.3 µM,Active,–,–,–,–,–,–,–,–,–,–,–
Not Active,H-KQLKLLKKLLKLLK-OH,5.2 µM,inactive,35.5 µM,6.77,6.3 µM,5.59,9 µM,3.95,1.8 µM,19.7,2 µM,17.8,–
Not Active,H-KLLKLLKKLEKLLK-OH,11.2 µM,inactive,–,–,–,–,–,–,–,–,–,–,–
Not Active,H-KELKLLKKLLKLLK-OH,6.8 µM,inactive,61.7 µM,9.13,13.5 µM,4.58,14.5 µM,4.25,2.4 µM,25.7,3.3 µM,18.7,Activity (HeLa [10]): inactive; Drug uptake [15]: Active; Drug uptake [16]: Active; Activity (HeLa [17]): Active; Activity (HeLa [18]): Active; Activity (HeLa [19]): Active; Drug uptake [20]: Active; Drug uptake [21]: Active; Activity (HeLa [22]): inactive; Activity [13]: Not Active
Not Active,H-KLLKELKKLLKLLK-OH,8.6 µM,inactive,–,–,–,–,–,–,–,–,–,–,–
Not Active,H-KLEKLLKKLLKLLK-OH,6.1 µM,inactive,–,–,–,–,–,–,–,–,–,–,–
Not Active,H-KLLKLLKKELKLLK-OH,> 64 µM,–,–,–,–,–,–,–,–,–,–,–,–
